Results published in patent publication US12121522B2, “Methods of treating cancer with an mTOR inhibitor” (Revolution Medicines, Inc., priority 2022, dated 2024).

System: mTORC2 activity (phosphorylation of Akt at Ser473)
Test: Cellular selectivity mTORC1 over mTORC2 (p4EBP1 vs pAkt)
Assay type: cell-based, human
Excerpt: The in vitro profile of RMC-5552 was characterized using standard biochemical and cellular assays to determine the mode of interaction with mTORC1 and mTORC2. The effect of RMC-5552 on established cellular readouts for mTORC1 activity (including phosphorylation of P70S6K at Thr389 and 4EBP1 at Thr37/46), mTORC2 activity (including phosphorylation of Akt at Ser473), and cellular proliferation was monitored.
RMC-5552 binds to the intracellular protein FKBP12 and engages the FRB allosteric site and the ATP binding site on the mTORC1 complex, leading to inhibition of mTOR kinase activity.

## CO[C@H]1C[C@@H]2CC[C@@H](C)[C@@](O)(O2)C(=O)C(=O)N2CCCC[C@H]2C(=O)O[C@H]([C@H](C)C[C@@H]2CC[C@@H](OC(=O)NCCOCCOCCOCCOCCOCCOCCOCCOCCC(=O)NCCS(=O)(=O)c3ccc(C(=O)N4CCOc5ccc(-c6ccc(N)nc6)cc5C4)c(C)c3F)[C@H](OC)C2)C[C@@H](O)[C@H](C)/C=C(\C)[C@@H](O)[C@@H](OC)C(=O)[C@H](C)C[C@H](C)/C=C/C=C/C=C/1C [RMC-6272]
  selective inhibition of mTORC1 over mTORC2: > 10 fold
